Source: paper PMC11739085, “A novel non-invasive murine model for rapidly testing drug activity via inhalation administration against Mycobacterium tuberculosis” (Frontiers in Pharmacology, 2025)
Values joined by “and” are separate entries in the source; they are usually repeats but may differ in a detail not shown here. Equal entries are not always repeated. “Also recorded” adds a separate entry of the source. Where two headings read alike, the source gives them in different places.

Legend:
in vivo [1] = details: mouse, inhaled or intranasal
[2] = Pharmacokinetics in plasma via inhalation; details: for duration plasma concentration exceeded in vitro MIC against M. tuberculosis / peak concentration in plasma / AUC(0-t) / AUC(0-inf) / Tmax: mice
[3] = Pharmacokinetics in lung via inhalation; details: for duration lung concentration above in vitro MIC against M. tuberculosis: lung tissue, inhalation
[4] = system: autoluminescent M. tuberculosis H37Rv (AlRv); type: in vivo, Mycobacterium tuberculosis
[5] = system: autoluminescent M. tuberculosis H37Rv (AlRv); type: in vivo, Mycobacterium tuberculosis; remark: listed apart in the source
M. tuberculosis = details: stated without method or reference; cited from earlier work
AlRv = test: Published inhalation administration method using a syringe-like device in mice infected with AlRv; type: in vivo, Mycobacterium tuberculosis; details: unpublished data
Description: To date, four primary research reports, encompassing three inhalation administration models, have explored the detection of anti-TB drug efficacy through airway administration ([Garcia-Contreras et al., 2007]; [Garcia-Contreras et al., 2010]; [Gonzalez-Juarrero et al., 2012]; [Verma et al., 2013]). Among these studies, only two have employed murine models for their investigations. Supplementary Table S1 presents a comprehensive comparison of the advantages and disadvantages of each report relative to our study. Compared to these existing inhalation administration model, our innovative method achieves several improvements. Firstly, it is cost-effective and user-friendly, employing mice instead of larger animals. Secondly, it eliminates the need for anesthesia in mice during administration, simplifying the instrument operation. We also endeavored to utilize a published inhalation administration method using a syringe-like device in mice infected with AlRv. However, we encountered significant challenges in administering drugs daily due to the development of swollen throats in the mice ([Gonzalez-Juarrero et al., 2012]). […] Thirdly, the results obtained are relatively objective and repeatable, thereby minimizing the influence of human factor. Fourthly, the same treatment group, consisting of six mice, is administrated daily and simultaneously. […]

[6] = set-up: method as in Grewal et al., 2018; Grosset et al., 1992; Lyons et al., 2013; details: mice, oral administration; ref Grewal et al., 2018; Grosset et al., 1992; Lyons et al., 2013; cited from earlier work
in vivo [7] = details: mouse, inhaled or intranasal; remark: listed apart in the source
[8] = inhalation, RIF 2, INH 0.5, EMB 10 mg/mL
[9] = single inhalation, RIF 2, INH 0.5, EMB 10 mg/mL
[10] = mouse, inhaled or intranasal, AUC0-t in plasma, inhalation, t = 4 h for INH and 24 h for RIF and EMB
[11] = mouse, inhaled or intranasal, AUC0-t, single inhalation 25 min, RIF 2, INH 0.5, EMB 10 mg/mL, t = 4 h for INH, 24 h for RIF and EMB
[12] = mouse, inhaled or intranasal, AUC0-∞ in plasma, inhalation
[13] = mouse, inhaled or intranasal, AUC0-∞, single inhalation 25 min, RIF 2, INH 0.5, EMB 10 mg/mL
[14] = mouse, inhaled or intranasal, time of peak concentration in plasma post-administration, single inhalation, RIF 2, INH 0.5, EMB 10 mg/mL, first sampling point 5 min
[15] = mice, RIF 2, INH 0.5, EMB 10 mg/mL
[16] = lung, mice, single inhalation, RIF 2, INH 0.5, EMB 10 mg/mL
[17] = mouse, lung, inhaled or intranasal, AUC0-t, mice, single inhalation 25 min, RIF 2, INH 0.5, EMB 10 mg/mL
[18] = mouse, lung, inhaled or intranasal, Tmax, mice, single inhalation 25 min, RIF 2, INH 0.5, EMB 10 mg/mL
[19] = mouse, lung, inhaled or intranasal, time of peak concentration in lung post-administration, mice, single inhalation, RIF 2, INH 0.5, EMB 10 mg/mL
[20] = […], RIF 2, INH 2, EMB 10 mg/mL, lungs D18

| Structure (SMILES) | duration plasma concentration exceeded in vitro MIC against M. tuberculosis [2, 8] | peak concentration in plasma [2, 9] | AUC(0-t) [2, 10] | AUC(0-t) [2, 11] | AUC(0-inf) [2, 12] | AUC(0-inf) [2, 13] | Tmax [2, 14] | duration lung concentration above in vitro MIC against M. tuberculosis [3, 15] | peak concentration in lung [3, 16] | AUC(0-t) [3, 17] | Tmax [3, 18] | Tmax [3, 19] | log10CFUs/lung difference to solvent group ([4]; in vivo) | log10RLUs/lung difference to solvent group ([4]; in vivo) | lowest inhaled concentration showing anti-M. tuberculosis activity in vivo ([4]; in vivo) | lung CFUs compared with BT group ([4]; in vivo) | lung RLUs compared with BT group ([4]; in vivo) | lung RLUs compared with solvent group ([4]; in vivo) | lung CFUs compared with BT group [5, 20] | in vitro minimum inhibitory concentration (MIC) (M. tuberculosis) | further results |
| --- | --- | --- | --- | --- | --- | --- | --- | --- | --- | --- | --- | --- | --- | --- | --- | --- | --- | --- | --- | --- | --- |
| NNC(=O)c1ccncc1 [INH, isoniazid] | ~3 h | 2.66 ± 0.29 µg/mL | 1570 ng·h/mL | 1570 ng·h/mL | 1790 ng·h/mL | 1790 ng·h/mL | ≤ 5 min | ~0.5 h | 2.52 ± 0.81 µg/g | 337 ng·h/mL | 15 min | ≤ 15 min | exceeding 1.5 log10CFUs/lung | exceeding 1.5 log10RLUs/lung | 0.5 mg/mL | lower | comparable | similar | lower | 0.13 µg/mL | Tmax (in vivo [1]): 4.8 min; concentration in the lungs 30 min post-administration ([3]; lung, mice, inhalation 0.5 mg/mL, 30 min post-administration): nearly undetectable; also recorded: near-zero; AUC(0-t) ([3]; mouse, lung, inhaled or intranasal, 0.5 mg/mL, AUC0-t in the lungs, mice, inhalation 0.5 mg/mL): 340 ng·h/mL; colonies on plates of lung suspension ([4]; […], only a fraction of the lung suspension plated): no colonies were observed; lung RLUs compared with BT group [5, 20]: slightly lower; RLUs compared with untreated control and the same mice the day before administration (AlRv): reduced RLUs; time of highest plasma concentration post-administration [6]: 0.25 h |
| CC[C@@H](CO)NCCN[C@@H](CC)CO [EMB, ethambutol] | ~14 h | 28.64 ± 16.80 µg/mL and 28.64 ± 16.8 µg/mL | 103000 ng·h/mL | 103000 ng·h/mL | 103000 ng·h/mL | 103000 ng·h/mL | ≤ 5 min | ~10 h | 10.94 ± 1.63 µg/g | 47300 ng·h/mL | 4.8 min | ≤ 5 min | exceeding 1.5 log10CFUs/lung |  | 0.625 mg/mL | nearly identical | equivalent | less significant differences | almost similar | 2.00 µg/mL | half-life ([2]; mouse, inhaled or intranasal): 170 min; Tmax ([2]; mouse, inhaled or intranasal, Tmax, single inhalation 25 min, RIF 2, INH 0.5, EMB 10 mg/mL): 4.8 min; half-life ([3]; mouse, lung, inhaled or intranasal): 274 min; AUC(0-inf) ([3]; mouse, lung, inhaled or intranasal, AUC0-∞, mice, single inhalation 25 min, RIF 2, INH 0.5, EMB 10 mg/mL): 48700 ng·h/mL; live RLUs compared with solvent group ([4]; in vivo): significantly lower; lung CFUs compared with solvent control ([4]; in vivo): significantly reduced; lung RLUs compared with BT group [5, 20]: nearly identical; time of highest plasma concentration post-administration [6]: 1.33 h |
| CO[C@H]1/C=C/O[C@@]2(C)Oc3c(C)c(O)c4c(O)c(c(/C=N/N5CCN(C)CC5)c(O)c4c3C2=O)NC(=O)/C(C)=C\C=C\[C@H](C)[C@H](O)[C@@H](C)[C@@H](O)[C@@H](C)[C@H](OC(C)=O)[C@@H]1C [RIF, rifampicin] | approximately 24 h |  |  |  |  |  |  | approximately 24 h |  |  |  |  | exceeding 1.5 log10CFUs/lung | exceeding 1.5 log10RLUs/lung | 0.5 mg/mL |  |  | comparable |  | 0.06 µg/mL | AUC(0-t) (in vivo [1]; AUC0-t in plasma): 19000 ng·h/mL; AUC(0-inf) (in vivo [1]; AUC0-∞ in plasma): 21000 ng·h/mL; Tmax (in vivo [1]; Tmax): 4.8 min; Tmax (in vivo [1]; time of peak concentration in plasma post-administration): 5 min; Tmax (in vivo [7]; Tmax): 4.8 min; Tmax (in vivo [7]; time of peak concentration in lung post-administration): 5 min; bactericidal activity by lung suspension RLU and CFU ([4]; in vivo): failed to demonstrate bactericidal activity; lung CFUs compared with solvent group ([4]; in vivo): slightly significantly lower; also recorded: approximately comparable; lung CFUs compared with BT group ([5]; in vivo): higher |
